Laboratory results taken from US9643933B2, “Compounds useful as antibiotic tolerance inhibitors” (priority 2013, dated 2017).
Like-named read-outs stand apart in the source and are kept apart here.

What was measured:
PQS = test: Assay for PQS Inhibition (6 Hour Incubation); type: cell-based, P. aeruginosa PA14 wild-type strain
Protocol: (§1) A concentration range with 7 test concentrations is chosen for each test compound. Typically concentration ranges for the PQS and HHQ assays are from 0.03 to 31.6 μM. Compounds are prepared in solvent, usually DMSO, at either 200 or 500 times the final test concentration.
(§2) P. aeruginosa PA14 wild-type strain is inoculated into 5 ml LB broth in a 15 ml sterile glass culture tube and incubated overnight at 37° C. under shaking (˜240 rpm). After overnight incubation, the bacterial culture is diluted in fresh LB broth to an OD600 nm=0.04, and 5 mL aliquots of the diluted bacterial culture are distributed into 15-mL glass tubes. 10 μL of test compound at 500 times the final test concentration or 25 μL of test compound at 200 times the final test concentration or solvent alone is added to each of the bacterial suspension tubes, and the tubes are incubated at 37° C. under shaking (300 rpm) for 6 hours. At the end of the incubation period, a 0.5 mL aliquot of bacterial suspension is transferred from each 15 mL glass tube, after shaking, to a 2 mL polypropylene vial. 0.5 mL of methanol-containing D4-PQS (deuterated-PQS), D4-HHQ (deuterated-HHQ) and 2% acetic acid are added to each 2 mL vial and each vial is vigorously shaken. The vials are then centrifuged for 5 minutes at 12,000 g, and 200 μL of supernatant from each vial is transferred to a glass vial (vials crimp 0.2 mL), and the sealed vials are kept at 4° C. until LC-MS/MS analysis is performed. HAQs quantification is carried out analyzing samples in discrete batches together with spiked standards and blank samples. Calibration curves are constructed from HAQs standards, and respective deuterated forms are used as Internal Standards (IS), to calculate the concentration of analytes in the sample and improve the precision of the assay. The back-calculated concentrations of the calibration standards from the calibration curve shall be within ±20% of the nominal values, the range of the analytical method is determined, and the lower and upper limit of quantification specified.
(§3) Liquid chromatography separations are performed using Agilent HP1100 system (Agilent Technologies) coupled with a CTC PAL Autosampler (CTC Analytics AG). Chromatographic retention is obtained using a monolithic column (Chromolith® RP-18, 50×4.6 mm). The solvent system consists of water containing 0.1% (v/v) formic acid (A) and acetonitrile containing 0.1% (v/v) formic acid (B). The gradient elution profile is chosen as follows: 0 min: 70% A (1500 μL/min), 0.3 min: 70% A (1500 μL/min), 1.3 min: 5% A (2500 μL/min), 1.6 min: 5% A (2500 μL/min).
(§4) The MS/MS analysis is performed with a API4000 series mass spectrometer (AB Sciex™) operating in Multiple Reaction Monitoring (MRM) mode and equipped with a TIS ion source. The specific ions monitored are PQS (m/z 260→m/z 175), D4-PQS (m/z 264→m/z 179), HHQ (m/z 244→m/z 159) and D4-HHQ (m/z 248→m/z 163). PQS and HHQ in presence of different test compound concentrations are expressed as percentage of inhibition of the basal level in control samples.

HHQ = test: Assay for HHQ Inhibition (6 Hour Incubation); type: cell-based, P. aeruginosa PA14 wild-type strain
Protocol: as §1, §2, §3, §4

[1] = Pseudomonas aeruginosa, PA14, 6 h, read-out: PQS (6 hr) IC50 (μM)
[2] = Pseudomonas aeruginosa, PA14, 6 h, read-out: HHQ (6 hr) IC50 (μM)

| Molecule | IC50 (PQS; [1]) [µM] | IC50 (HHQ; [2]) [µM] | IC50 (PQS; P. aeruginosa PA14 culture, 6 hours incubation, PQS by LC-MS/MS, read-out: PQS (6 hr) IC50) [µM] | IC50 (HHQ; P. aeruginosa PA14 culture, 6 hours incubation, HHQ by LC-MS/MS, read-out: HHQ (6 hr) IC50) [µM] |
| --- | --- | --- | --- | --- |
| N#Cc1ccc(NC(=O)CSc2nc3cc(C(F)(F)F)ccc3[nH]2)cc1 [Compound 56] | < 1 | < 1 | – | – |
| N#Cc1ccc(NC(=O)CSc2nc3cc(F)ccc3[nH]2)cc1 [Compound 57] | 1 to 5 | 1 to 5 | – | – |
| 2-((5-chloro-1H-benzo[d]imidazol-2-yl)thio)-N-(4-(pyrimidin-5-yloxy)phenyl)acetamide [Compound 79] | – | – | < 1 | < 1 |
| O=C(CCc1nc2ccc(Cl)cc2[nH]1)Nc1ccc(Oc2cccnc2)cc1 [Compound 152, 3-(5-chloro-1H-benzo[d]imidazol-2-yl)-N-(4-(pyridin-3-yloxy)phenyl)propanamide] | < 1 | < 1 | – | – |
| O=C(CSc1nc2cc(Cl)ccc2[nH]1)Nc1ccc(Oc2cccnc2)cc1 [Compound 77, 2-((5-chloro-1H-benzo[d]imidazol-2-yl)thio)-N-(4-(pyridin-3-yloxy)phenyl)acetamide] | < 1 | < 1 | – | – |
| O=C(CSc1nc2ccc(-n3cccn3)cc2[nH]1)Nc1ccc(Cl)cc1 [Compound 116] | > 10 | > 10 | – | – |
| O=C(CCc1nc2ccc(Cl)cc2s1)Nc1ccc(Oc2cccnc2)cc1 [Compound 86, 3-(6-Chlorobenzo[d]thiazol-2-yl)-N-(4-(pyridin-3-yloxy)phenyl)propanamide] | > 10 | > 10 | – | – |
| N#Cc1ccc(NC(=O)CSc2nc3cc(Cl)ccc3[nH]2)cc1 [Compound 125] | < 1 | < 1 | – | – |
| COc1ccc(NC(=O)CSc2nc3ccc(Cl)cc3[nH]2)cc1 [Compound 140] | 5 to 10 | – | – | – |
| O=C(CNc1nc2cc(Cl)ccc2s1)Nc1ccc(Oc2cccnc2)cc1 [Compound 71, 2-((5-chlorobenzo[d]thiazol-2-yl)amino)-N-(4-(pyridin-3-yloxy)phenyl)acetamide] | 1 to 5 | 1 to 5 | – | – |
| N#Cc1ccc(NC(=O)CSc2nc3ccc(C#N)cc3[nH]2)cc1 [Compound 93] | 1 to 5 | < 1 | – | – |
| O=C(CSc1nc2cc(Cl)ccc2[nH]1)Nc1ccc(Oc2cccnc2Cl)cc1 [Compound 83, 2-((5-chloro-1H-benzo[d]imidazol-2-yl)thio)-N-(4-((2-chloropyridin-3-yl)oxy)phenyl)acetamide] | < 1 | < 1 | – | – |
| O=C(CNc1nc2cc(Cl)ccc2o1)Nc1ccc(Oc2cccnc2)cc1 [Compound 74, 2-((5-chlorobenzo[d]oxazol-2-yl)amino)-N-(4-(pyridin-3-yloxy)phenyl)acetamide] | 1 to 5 | < 1 | – | – |
| O=C(CSc1nc2ccc(Cl)cc2[nH]1)Nc1ccc(Cl)cc1 [Compound 137] | < 1 | < 1 | – | – |
| O=C(CSc1nc2cc(Cl)ccc2[nH]1)Nc1ccc(Oc2ccc(Cl)nc2)cc1 [Compound 84, 2-((5-chloro-1H-benzo[d]imidazol-2-yl)thio)-N-(4-((6-chloropyridin-3-yl)oxy)phenyl)acetamide] | < 1 | < 1 | – | – |
| O=C(CSc1nc2cc(F)ccc2[nH]1)Nc1ccc(Cl)cc1 [Compound 110] | 1 to 5 | 1 to 5 | – | – |
| O=C(CCc1nc2cc(Cl)ccc2s1)Nc1ccc(Oc2cccnc2)cc1 [Compound 85, 3-(5-chlorobenzo[d]thiazol-2-yl)-N-(4-(pyridin-3-yloxy)phenyl)propanamide] | 1 to 5 | 1 to 5 | – | – |
| N#Cc1ccc(NC(=O)CSc2nc3cc(Cl)ccc3[nH]2)cc1Cl [Compound 142] | < 1 | < 1 | – | – |
| O=C(CSc1nc2cc(F)c(F)cc2[nH]1)Nc1ccc(Br)cc1 [Compound 126] | 1 to 5 | – | – | – |
| O=C(CSc1nc2ccc(Br)cc2[nH]1)Nc1ccc(Cl)cc1 [Compound 145] | < 1 | < 1 | – | – |
| N#Cc1ccc2nc(SCC(=O)Nc3ccc(Cl)cc3)[nH]c2c1 [Compound 94] | 1 to 5 | 1 to 5 | – | – |
| N#Cc1ccc(NC(=O)CSc2nc3cc(OC(F)F)ccc3[nH]2)cc1 [Compound 104] | 1 to 5 | 1 to 5 | – | – |
| O=C(CSc1nc2cc(C(F)(F)F)ccc2[nH]1)Nc1ccc(Cl)cc1 [Compound 105] | < 1 | < 1 | – | – |
| N#Cc1ccc(NC(=O)CSc2nc3cc(Br)ccc3[nH]2)cc1 [Compound 96] | < 1 | < 1 | – | – |
| N#Cc1ccc(NC(=O)CSc2nc3cc(Br)ccc3o2)cc1 [Compound 147] | < 1 | < 1 | – | – |
